Measurements published in article PMC9804387, “Substrate Peptidomimetic Inhibitors of P. falciparum Plasmepsin X with Potent Antimalarial Activity” (Chemmedchem, 2022).
pEC50, pIC50: −log10 of the molar value. Where a name gives a salt, the structure may show the parent alone.

How the values were obtained:
Pf 3D7 = tested on: Pf 3D7; parameters: method as in PMID 29074775, PMID 32109369, PMID 23260352, PMID 29519896; conditions: Figure 1, described in literature; cited from earlier work
PMIX = tested on: PMIX; parameters: method as in PMID 29074775, PMID 32109369, PMID 23260352, PMID 29519896; conditions: Figure 1, described in literature; cited from earlier work
PMX = conditions: cited from earlier work
BACE‐1 = molecular target: T1, BACE‐1 (Homo sapiens, UniProt P56817); assay: BACE-1 FRET protease assay; type: biochemical; conditions: mean and SD of 4 replicate FRET experiments, 37 °C; highest concentration tested 11 μM
T1 construct: purchased Sigma S4195

recombinant Pf PMX = molecular target: T2, recombinant Pf PMX (Plasmodium falciparum, UniProt Q8IAS0); assay: PMX biochemical FRET assay (Rh2N fluorogenic substrate cleavage); conditions: 37 °C
T2 construct: made in house
Experimental: FRET Protease Assays. FRET protease assays were performed as previously described.[19, 20, 27, 28] Briefly, ten‐point 1 : 3‐fold dilution series of the compounds were prepared in 384‐well black low volume assay plates (Greiner) using an Echo555 (Labcyte). 10 mM compound stocks were transferred into assay plates such that the starting concentration was 90 μM (Pv PMV assays), 11.25 μM (renin, cathepsin D and BACE‐1 assays) or 100 nM and 10 μM (Pf PMX and Pf PMIX assays). All wells were backfilled to 200 nL DMSO such that the DMSO concentration remained constant across the assay plates (1 % final). All compound potency assays were conducted in 20 μL total volume. For each assay, 10 μL of recombinant enzymes in respective assay buffers (Table S2) were dispensed into compound containing assay plates using a Multidrop‐Combi dispenser and allowed to incubate for 15 min. Recombinant Pf PMX, Pf PMIX and Pv PMV were expressed as previously described,[23, 27, 28] and recombinant human aspartyl proteases were purchased commercially. 10 μL of the fluorogenic peptide substrates incubated at 37 °C for the duration and conditions noted in Table S2. Samples were excited at 340 nm and fluorescence emission measured at 492 nm using an Envision fluorescence plate reader (Perkin‐Elmer). The 0 % inhibition control contained DMSO alone (1 % final) and the 100 % inhibition control was in the absence of enzyme. […]
Table S2 . P rotease FRET assay conditions.
PMX as sa y PMIX PM V assay Renin assay Cathepsin D assay BA CE-1 assay E nzy me prot e as e 0.25 nM pro te a se 6 nM prot e as e q ua nti ty 0.1 nM pro t ea se 1.5 nM pro t ea se 2.5 nM pro t ea se 3 nM (Pro te os #R-001) ( Athe ns Re sea rc h (Sigma #S4195) […]
25mM so di um acetate, 100 mM 25 mM M E S, 25 m M 50 mM Tr is, 100 mM 100 mM so di u m 20 mM so dium Buffer acetate, 0.005% sodium chloride and Tris-HCl, 0.01% N aC l, 0. 1% Bri j-35, acetate 0.02% scetate, 0.05% […]
Sub str at e DABCYL- ( DA BC YL ) - DABCYL- DABCYL-(γ- Ab u) - E[E(EDANS)]KPIL […]

in vitro = type: cell-based; conditions: human
Experimental: HepG2 Cytotoxicity Assay. HepG2 cytotoxicity assays were performed as previously described.[41] Briefly, human hepatocyte HepG2 cells were cultured in DMEM supplemented with 10 % FCS at 37 °C and 5 % CO2 in a humidified incubator. Cells were seeded at 1000 cells/well in 50 μL in 384‐well plates (Grenier) and compounds incubated in ten‐point 1 : 2‐fold dilution series for 48 h. Cytotoxicity was determined using Cell Titer‐Glo (Promega), normalized to DMSO alone controls (100 % viability) and control compound Bortezomib (0 % viability at 10 μM). CC50 values were calculated by GraphPad Prism (8.0.2) software using a nonlinear regression four‐parameter fit analysis with the sigmoidal dose response (variable slope).

[1] = tested on: SERA5 processing by SUB1, indicative of upstream activity by PMX; assay: SERA5 processing inhibition assay in parasites (western blot, anti-SERA5); type: cell-based, P. falciparum; conditions: 38 at 10 μM
From the text: PMX and PMIX ligand cleavage in P. falciparum parasites. It was next determined whether 38 could inhibit PMX and PMIX processing of known invasion and egress ligands in P. falciparum parasites. […] SERA5 is not a direct substrate of PMX, but is processed by SUB1 which itself is activated by PMX. The degree of downstream processing of SERA5 by SUB1 is indicative of PMX activity.
(§1) In this experiment, synchronized late trophozoite/early schizont stage parasites, expressing HA‐tagged ASP, were incubated with 38 (10 μM), the positive control WM382 (1) (2.5 nM) (a dual potent inhibitor of PMIX and PMX) and the DMSO vehicle control. Parasites from each treatment condition were then lysed and the processing of the known PMX and PMIX substrates were detected by western blot as a corollary of protease activity.
P. falciparum ASP and SERA5 Processing Inhibition Assay. P. falciparum substrate processing inhibition assays were performed as previously described.[28] Synchronized ring stage cultures were treated with test compounds 38 (10 μM) and WM382 (2.5 nM)[28] or DMSO as a vehicle control. […] HA‐tagged apical sushi protein (ASP) was detected in the merozoite fraction with anti‐HA mAb and SERA5 was detected in the supernatant fraction with an anti‐SERA5 polyclonal Ab. […]

[2] = tested on: PMIX processing of the ASP protein; assay: ASP processing inhibition assay in parasites (western blot, anti-HA); type: cell-based, P. falciparum; conditions: 38 at 10 μM, HA‐tagged ASP parasites
Experimental: as §1
P. falciparum ASP and SERA5 Processing Inhibition Assay. P. falciparum substrate processing inhibition assays were performed as previously described.[28] Synchronized ring stage cultures were treated with test compounds 38 (10 μM) and WM382 (2.5 nM)[28] or DMSO as a vehicle control. The parasite cultures were grown to the schizont stage before passing over LD magnetic columns (Miltenyi Biotech) to remove uninfected erythrocytes. Parasites were eluted from columns with RPMI 1640 (in‐house) culture medium to which the appropriate inhibitor at the same concentration had been added. Eluted parasites were adjusted to 5×10^6 schizonts/mL and 150 μL added per well of a 96‐well flat‐bottomed culture plate. […] HA‐tagged apical sushi protein (ASP) was detected in the merozoite fraction with anti‐HA mAb and SERA5 was detected in the supernatant fraction with an anti‐SERA5 polyclonal Ab. […]

[3] = Table 3, mean and SD of 4 replicate FRET experiments
[4] = recombinant PMX, fluorogenic substrate (Rh2N) cleavage, 4 h, mean and SD of 4 replicates (Tables 1, 2)

T2 sequence (Q8IAS0 222-573): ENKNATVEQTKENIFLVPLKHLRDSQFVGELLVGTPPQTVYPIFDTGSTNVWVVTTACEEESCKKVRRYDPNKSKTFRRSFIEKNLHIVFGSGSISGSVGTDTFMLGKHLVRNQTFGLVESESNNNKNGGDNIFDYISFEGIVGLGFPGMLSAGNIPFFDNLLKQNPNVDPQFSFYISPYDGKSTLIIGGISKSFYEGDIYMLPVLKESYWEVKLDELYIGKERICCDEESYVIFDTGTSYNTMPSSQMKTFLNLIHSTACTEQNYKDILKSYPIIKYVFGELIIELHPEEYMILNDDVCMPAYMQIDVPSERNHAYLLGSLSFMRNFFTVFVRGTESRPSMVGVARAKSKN
T1 sequence (P56817 46-460 limits assumed): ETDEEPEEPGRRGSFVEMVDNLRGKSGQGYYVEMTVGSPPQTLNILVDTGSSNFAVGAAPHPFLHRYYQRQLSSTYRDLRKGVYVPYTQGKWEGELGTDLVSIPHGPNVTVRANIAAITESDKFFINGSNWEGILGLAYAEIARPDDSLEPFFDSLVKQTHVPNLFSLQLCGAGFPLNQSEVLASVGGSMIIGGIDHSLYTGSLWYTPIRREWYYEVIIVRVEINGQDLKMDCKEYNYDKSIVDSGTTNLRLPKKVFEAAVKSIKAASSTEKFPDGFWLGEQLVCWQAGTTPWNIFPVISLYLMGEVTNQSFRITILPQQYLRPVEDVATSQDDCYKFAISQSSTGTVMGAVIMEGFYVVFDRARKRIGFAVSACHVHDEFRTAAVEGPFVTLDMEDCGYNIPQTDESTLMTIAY

Compound	pEC50 (Pf 3D7)	pIC50 (PMIX)	pIC50 (PMX; Figure 1, described in literature)	selectivity for PMX compared to PMIX (PMX) [fold]	pIC50 (BACE‐1)	pIC50 (recombinant Pf PMX; [3])	pIC50 (recombinant Pf PMX; [4])	CC50 at 48 h (in vitro) [nM]	SERA5 processing (western blot) [1]	ASP processing by PMIX (western blot) [2]
C[C@@H](NC[C@@H](O)[C@H](Cc1ccccc1)NC(=O)c1ccc(C(=O)N2CCN(C)CC2)cc1)c1ccccc1 [Compd 2, reference compound]	9.22	6.19	8.85	> 500	< 4.96	9.00	9.00			
C[C@@H](NC[C@@H](O)[C@H](Cc1ccccc1)NC(=O)[C@H](CO)NC(=O)OCc1ccccc1)c1ccccc1 [Compd 38, Cbz‐Ser‐Phe‐HEA‐Bn(CH3)⋅TFA]					< 4.96	7.22	7.22	> 40000	complete inhibition of SERA5 processing	partial inhibition of PMIX processing
